The data set can be described thus: Human HepG2 cell viability assay in 384 well format. Conditions: HepG2 cells, read-out: Inhibition. The class given is toxicity, cell-based. Also on record: dose 125 nL, time 70.5 hour; concentration not given beside the values.

Molecules are shown by their SMILES.

Consider `CCc1cc(N[C@H]2CCC[C@H]2CO)n2nc(C)c(C)c2n1`, for which the cytotoxicity at 70.5 h is -2.92%.
The figure for `CC(NC(=O)c1coc(COc2cccc(F)c2)n1)c1nnc(N)s1` (stereo not given) is -10.7%; for `Cc1noc(-c2ccnc(Oc3ccccc3CN3CCCCC3)c2)n1` it is -1.96%.
For `COc1cccc(-c2noc(-c3ccc(NCCCN)nc3)n2)c1OC` the value was 2.21%.
For `Cc1[nH]c2c(F)cccc2c1CC(=O)NC1CCCCNC1=O` (stereo not given) the value was 24.9%; for `O=C(CSc1ccncc1)N1CCC2(CC1)c1ccccc1CC2O` (stereo not given), -5.15%; for `Cn1c(CN2CCCCC2)nnc1C1CCCN(C(=O)CCC(N)=O)C1` (stereo not given), -9%.
For `O=C(O)c1cc(-c2ccncc2)cc(S(=O)(=O)N2CCCCCC2)c1`, the cytotoxicity at 70.5 h is -18.9%.
For `CCc1cnc(NCCCN2CCC(O)CC2)nc1` the value was -1.08%; for `Cc1nc(-c2ncc(C(=O)NCCNc3ncccc3C)c(O)n2)cs1`, -2.82%; for `CC(CN1CCC(c2ccccc2)CC1)n1cnc2ccccc21` (stereo not given), -18.3%.
For `Cc1nn(C)c(C)c1CN(C(=O)c1cnc(O)cn1)C(C)C` the value was -2.89%; for `CNC(=O)[C@@H]1C[C@H](N)CN1S(=O)(=O)c1cc(Cl)cc(Cl)c1O`, -6.21%; for `c1csc(CN2CCCN(c3ncnc4[nH]ccc34)CC2)c1`, -13.6%.
For `O=C(O)[C@@H]1CN(Cc2nc3ncccn3n2)C[C@H]1c1cccc(F)c1` the value was 26.1%; for `COc1ccccc1OCc1cc(C(=O)NC[C@@H]2CCCN2)n[nH]1`, -1.83%; for `CCc1nnc(N2C[C@@H](NC(C)=O)[C@H](c3ccc(C)o3)C2)s1`, 2.74%.
On to `OC1(CNCCSCc2ccccc2)CCCNC1` (stereo not given), for which the cytotoxicity at 70.5 h came to 18.4%.
Consider `CC(C)=CCN1C[C@@H]2CN(C(=O)c3cnccc3C)C[C@]2(C(=O)O)C1`, for which the cytotoxicity at 70.5 h was -7.13%.
The figure for `CN(C)CCCC(=O)NC1CC(C)(C)Cc2nc(C(C)(C)C)ncc21` (stereo not given) is -17.7%; for `COc1ccc2c(c1OC)Cc1c-2nc(N)c(C#N)c1C1CCOC1` (stereo not given) it is -19.2%.
For `CCOCC(=O)N1CCc2c(ncnc2N2CCOCC2)C1`, the cytotoxicity at 70.5 h was -3.63%.
For `CC(C)c1nccc(-c2nccn2CCS(C)(=O)=O)n1` the value was -16.1%; for `CC(C)C[C@H](NC(=O)c1cc(-c2cccn2C)n[nH]1)C(N)=O`, -0.791%; for `COCCNc1nc2c(c(NCCc3cccs3)n1)CCNCC2`, -2.67%.
For `Fc1ccccc1CC1CCN(Cc2nccs2)CC1` the value was -3.29%; for `C[C@@H]1CN(C(=O)C2(Cn3cccn3)CC2)CC[C@@]1(O)C1CCOCC1`, -0.0584%.
For the compound `CCc1cnc(N2CCCC(CCC(N)=O)C2)nc1` (stereo not given), the cytotoxicity at 70.5 h stood at 17.3%.
`O[C@@H]1CN(c2noc(C3CC3)n2)CC[C@H]1c1ccc2ccccc2c1`: the cytotoxicity at 70.5 h turned out to be 17.6%.
The figure for `CN1CCc2[nH]cnc2C12CCN(Cc1ccc3nsnc3c1)CC2` is 0.284%; for `CNc1nc(C)c(C(=O)N2C[C@@H](C(=O)O)[C@H](C3CC3)C2)s1` it is -6.65%.
For `CN1CCC(C2CCN(Cc3cccc(-n4cccn4)c3)CC2)C1` (stereo not given) the value was 2.02%; for `CC(c1ccc(C(=O)NCCc2nc(N)cc(O)n2)o1)N1CCCCC1` (stereo not given), -3.9%.
For `CN(Cc1cc2n(n1)CCNC2)Cc1cc(-c2ccccn2)no1` the value was -5.4%.
For `O=C(Cc1ccc(F)cc1Cl)N1C[C@@H](CN2CCC(O)CC2)[C@@H](CO)C1`, the cytotoxicity at 70.5 h was -3.43%.
For `COCc1nc(Cn2c(C)cc(C(F)(F)F)cc2=O)no1` the value was 23.9%.
The figure for `Cc1nn(C)c(C)c1-c1ccnc(N(C)Cc2noc(C(C)C)n2)n1` is 7.17%.
In the case of `CCC(C)N(Cc1cccnc1)Cc1ccccc1Cn1cccn1` (stereo not given), the cytotoxicity at 70.5 h was -9.31%.
For `CC(C)Cc1cc(C(=O)NC(C)(CO)CO)n(C)n1` the value was -16.8%; for `Cc1nnc(CN(C)Cc2ccc(C(=O)Nc3sccc3C#N)cc2)o1`, 0.967%.
For `CC(=O)NCCNc1cc(C)nc2cc(C)nn12` the value was 0.136%; for `Cc1nc(CN2CC(Cc3ccccc3)CC2=O)no1` (stereo not given), -17.4%; for `CCn1cnnc1C1CCN(C(=O)c2ccccc2F)CC1`, -7.26%.
Regarding `CC(C)c1nccn1C1CCCN(C(=O)c2ccc3nncn3c2)C1` (stereo not given), the cytotoxicity at 70.5 h was found to be 13%.
Take `CCn1cnnc1C1CCN(C(=O)c2cc(F)ccc2OC)CC1`: the cytotoxicity at 70.5 h is -10.6%.
For `CCn1cnnc1C1CCN(C(=O)c2cc(C)n(CC)c2C)CC1` the value was -5.03%; for `Cc1nc(C)n(CC2CCCCN2Cc2nc3ccccc3o2)n1` (stereo not given), 17.7%; for `Cc1nc(C)n(CC2CN(CC(=O)NC3CCCC3)CCO2)n1` (stereo not given), -7.31%.
The figure for `Cc1cnn(C2CN(Cc3nc(-c4ccsc4)no3)C2)c1` is -8.74%; for `CCc1nc(CNc2ccc(C(=O)N3CCSCC3)cc2C)no1` it is -6.1%.
In the case of `CC(C)Cn1nnnc1SC(C(=O)NCc1cccnc1)C(C)C` (stereo not given), the cytotoxicity at 70.5 h is -4.78%.
The figure for `Cc1cc(CN(C)C2CCCN(c3cccnn3)C2)no1` (stereo not given) is -9.99%.
For `Cc1nc(C)n(CC2CCCCN2Cc2cnc(C)s2)n1` (stereo not given) the value was -7.75%.
For `Cc1cc(C(=O)N2CCCC(C)C2)ccc1NCc1nc(C(C)C)no1` (stereo not given) the value was -9.64%; for `CCN(C(C)=O)c1nc(CN2CCCCC2Cn2cncn2)cs1` (stereo not given), -3.03%; for `Cc1cc(C)n(CC2CCCN2Cc2ncc(C(C)(C)C)o2)n1` (stereo not given), -5.22%.
For `CCn1cc(CN2CCCN(C(=O)CCSC)CC2)cn1`, the cytotoxicity at 70.5 h was -1.89%.
For `CC(C)Oc1ccc(Cl)c(C(=O)N2CCN(CCO)CC2)n1` the value was -12.1%.
As for `COc1c(CNCC(O)c2ccccc2F)c(C(C)C)nn1C` (stereo not given), the cytotoxicity at 70.5 h was determined as 21.4%.
The figure for `CCn1cc(CN2CCCN(C(=O)CCc3cccs3)CC2)cn1` is -12.3%.
For `CCn1cc(CN2CCCN(C(=O)CCc3ccccc3)CC2)cn1` the value was -12.3%; for `COCCN1CCN(Cc2ccc(OCc3nccn3C)cc2)CC1`, -14.3%; for `CC(=O)N1CCN(Cc2coc(-c3cccc(F)c3)n2)CC1`, -19.9%.
The figure for `CCn1cc(CN2CCCN(C(=O)CCn3cc(C)cn3)CC2)cn1` is -12.3%; for `O=C(c1ccc2[nH]nnc2c1)N1CCC(Nc2cccnn2)CC1` it is 10.7%.
With `CC(C)Cc1cc(NC(=O)c2ccccc2)n(C)n1`, the cytotoxicity at 70.5 h was -15.4%.
The figure for `O=C(NCC1COC2(CCOCC2)O1)c1csc(-c2cccc(Cl)c2)n1` (stereo not given) is -20.8%; for `CCn1cc(CN2CCCN(C(=O)CCc3nccs3)CC2)cn1` it is -12.4%; for `COc1ccc(-c2nc(C(=O)NCC3CCOC3)cs2)cc1OC` (stereo not given) it is -7.66%.
For `CCOc1ccc(-c2nc(C(=O)NCC3CCOC3)cs2)cc1` (stereo not given) the value was -7.97%.
For `CCOc1ccc(Cl)c(C(=O)N2CCN(C(=O)OC)CC2)n1` the value was -14.3%.
Regarding `CCOc1ccc(Cl)c(C(=O)N2CCN(c3ncccn3)CC2)n1`, the cytotoxicity at 70.5 h is -12.1%.
With `CC(=O)N1CCN(Cc2ccc(OCc3nccn3C)cc2)CC1`, the cytotoxicity at 70.5 h is -8.75%.
Consider `COc1ccc(C(=O)Nc2cc(CC(C)C)nn2C)cc1`, for which the cytotoxicity at 70.5 h turned out to be 7.52%.
As for `COc1ccccc1C(=O)Nc1cc(CC(C)C)nn1C`, the cytotoxicity at 70.5 h was -3.94%.
The figure for `CC(C)Cc1cc(NC(=O)c2ccccn2)n(C)n1` is -10.2%; for `CC(C)Cc1cc(NC(=O)c2ccncc2)n(C)n1` it is -11.6%.
For `Cc1nc2cc(O)nn2c(C)c1CCC(=O)NCc1cc(Br)cs1` the value was -13.2%; for `O=C(c1ccc(-c2cnco2)cc1)N1CCC(Nc2cccnn2)CC1`, -4.21%.
For `O=C(c1ccc2cc[nH]c2c1)N1CCC(Nc2cccnn2)CC1` the value was -4.46%; for `CNC(=O)c1ccc(C(=O)N2CCCC(n3ccnc3)C2)cn1` (stereo not given), -15.9%; for `Cc1cnn(C2CCCN(C(=O)c3ccc(-n4cccn4)nc3)C2)c1` (stereo not given), -11.3%.
With `Cc1oc(C(=O)O)cc1S(=O)(=O)Nc1ccc(Cl)cc1F`, the cytotoxicity at 70.5 h is -0.71%.
The figure for `Cc1oc(C(=O)O)cc1S(=O)(=O)Nc1ccc(Br)cc1Cl` is -16.9%; for `Cc1oc(C(=O)O)cc1S(=O)(=O)Nc1cc(Br)ccc1F` it is -7.4%.
The figure for `COC(=O)c1cccn1C1CCN(C(=O)c2c(C)noc2C)CC1` is 3.97%.
For `CC(C)N(C)CC(=O)N(C)C(c1cccc(F)c1)c1ccccn1` (stereo not given) the value was 40.9%.
In the case of `COc1c(C)cnc(CN2CCC(N(C)C(=O)C(C)OC)CC2)c1C` (stereo not given), the cytotoxicity at 70.5 h is 7.6%.
With `CC(=O)N(C)C(c1cccc(F)c1)c1ccccn1` (stereo not given), the cytotoxicity at 70.5 h is 8.62%.
For `c1csc(N2CCCN(Cc3noc(C4CC4)n3)CC2)n1`, the cytotoxicity at 70.5 h was -11.8%.
As to `Cc1ccc(NC2CCN(C(=O)c3cnn(C(C)(C)C)c3)CC2)nn1`, the cytotoxicity at 70.5 h was -14.1%.
The figure for `CCOCCCC(=O)N(C)C(c1cccc(F)c1)c1ccccn1` (stereo not given) is -23.5%; for `COCCN1CCC(NCc2ccc(Cl)cc2)C1` (stereo not given) it is -11.1%.
The figure for `Cc1ccc(NC2CCN(C(=O)c3ccnc(N(C)C)c3)CC2)nn1` is -22.6%; for `CN(C)S(=O)(=O)N(C)C(c1cccc(F)c1)c1ccccn1` (stereo not given) it is -19.9%.
The figure for `Cc1nn(C)c(C)c1C1COCCN1C(=O)c1ccc(Cl)o1` (stereo not given) is 10.5%; for `Cc1ccc(NC2CCN(C(=O)c3ccncc3)CC2)nn1` it is -12.4%.
Take `CC(C)(C)c1nc(CN2CCCN(Cc3cccs3)CC2)no1`: the cytotoxicity at 70.5 h was -18.1%.
For `CCc1noc(CN2CCN(c3nccs3)CC2)n1` the value was 10.7%; for `COc1ncccc1NC(=O)N(Cc1ccccn1)C1CC1`, -17.7%.

Values taken from ChEMBL document CHEMBL3507680, “University of Dundee, Gates Library screen for HepG2 cell viability”.
